Species on record: Rattus norvegicus
Experiment: Open TG-GATES - Regimen: Single
Type: toxicity, organism-based, Sprague-Dawley
Parameters: regimen Single, gender Male, age 6 weeks
Conditions: in vivo, po, 0 mg/kg, route gavage, dose level Control; for APTT / Bas / Eos / Fbg / Hb / Ht / Lym / MCH / MCHC / MCV / Mono / Neu / PT / Plat / RBC / Ret / WBC: tissue Blood; for KIDNEY_L / KIDNEY_R / KIDNEY_TOTAL: tissue Kidney; for LIVER: tissue Liver; for A/G / ALP / ALT / AST / BUN / CRE / Ca / Cl / DBIL / GLC / IP / K / LDH / Na / PL / RALB / TBIL / TC / TG / TP / gamma-GTP: tissue Plasma

CC[C@H]1[C@@H]2C[C@H]3[C@@H]4N(C)c5ccccc5[C@]45C[C@@H]([C@@H]2[C@H]5O)N3[C@@H]1O [AJMALINE]
TERMINAL_BW (3 h): 194.6 g | APTT (3 h): 16.6 s | Bas (3 h): 0% | Eos (3 h): 1% | Fbg (3 h): 202.8 mg/dL | Hb (3 h): 12.8 g/dL | Ht (3 h): 39.1% | Lym (3 h): 80.2% | MCH (3 h): 21.8 pg | MCHC (3 h): 32.9% | MCV (3 h): 66.3 fL | Mono (3 h): 6.8% | Neu (3 h): 12.2% | PT (3 h): 11.6 s | Plat (3 h): 109.9 x10_4/uL | RBC (3 h): 589.2 x10_4/ul | Ret (3 h): 12.5% | WBC (3 h): 94.6 x10_2/uL | KIDNEY_L (3 h): 0.9 g | KIDNEY_R (3 h): 0.9 g | KIDNEY_TOTAL (3 h): 1.9 g | LIVER (3 h): 9.4 g | A/G (3 h): 2.5 | ALP (3 h): 879.4 IU/L | ALT (3 h): 34.6 IU/L | AST (3 h): 66.8 IU/L | BUN (3 h): 10.6 mg/dL | CRE (3 h): 0.4 mg/dL | Ca (3 h): 11.4 mg/dL | Cl (3 h): 100.8 meq/L | DBIL (3 h): 0.04 mg/dL | GLC (3 h): 191.4 mg/dL | IP (3 h): 9.5 mg/dL | K (3 h): 4.4 meq/L | LDH (3 h): 95.4 IU/L | Na (3 h): 137.2 meq/L | PL (3 h): 149 mg/dL | RALB (3 h): 3.7 g/dL | TBIL (3 h): 0.3 mg/dL | TC (3 h): 82.4 mg/dL | TG (3 h): 69.4 mg/dL | TP (3 h): 5.3 g/dL | gamma-GTP (3 h): 2 IU/L | TERMINAL_BW (6 h): 192.3 g | APTT (6 h): 16.9 s | Bas (6 h): 0% | Eos (6 h): 1.2% | Fbg (6 h): 196.2 mg/dL | Hb (6 h): 13 g/dL | Ht (6 h): 39.5% | Lym (6 h): 73.4% | MCH (6 h): 21.5 pg | MCHC (6 h): 32.8% | MCV (6 h): 65.3 fL | Mono (6 h): 10.6% | Neu (6 h): 15% | PT (6 h): 11.6 s | Plat (6 h): 113.8 x10_4/uL | RBC (6 h): 605.4 x10_4/ul | Ret (6 h): 10.6% | WBC (6 h): 102.3 x10_2/uL | KIDNEY_L (6 h): 0.9 g | KIDNEY_R (6 h): 0.9 g | KIDNEY_TOTAL (6 h): 1.7 g | LIVER (6 h): 8.3 g | A/G (6 h): 2.2 | ALP (6 h): 832.4 IU/L | ALT (6 h): 34.6 IU/L | AST (6 h): 61.8 IU/L | BUN (6 h): 9.6 mg/dL | CRE (6 h): 0.5 mg/dL | Ca (6 h): 10.7 mg/dL | Cl (6 h): 103.4 meq/L | DBIL (6 h): 0.042 mg/dL | GLC (6 h): 187 mg/dL | IP (6 h): 10 mg/dL | K (6 h): 4.8 meq/L | LDH (6 h): 72.6 IU/L | Na (6 h): 138.8 meq/L | PL (6 h): 133.2 mg/dL | RALB (6 h): 3.5 g/dL | TBIL (6 h): 0.4 mg/dL | TC (6 h): 83.6 mg/dL | TG (6 h): 64.8 mg/dL | TP (6 h): 5.2 g/dL | gamma-GTP (6 h): 1.6 IU/L | TERMINAL_BW (9 h): 192.7 g | APTT (9 h): 17.8 s | Bas (9 h): 0% | Eos (9 h): 1% | Fbg (9 h): 199.4 mg/dL | Hb (9 h): 12.7 g/dL | Ht (9 h): 38.6% | Lym (9 h): 79.6% | MCH (9 h): 22.2 pg | MCHC (9 h): 32.9% | MCV (9 h): 67.5 fL | Mono (9 h): 7.8% | Neu (9 h): 11.6% | PT (9 h): 12.3 s | Plat (9 h): 114.2 x10_4/uL | RBC (9 h): 573.2 x10_4/ul | Ret (9 h): 9.6% | WBC (9 h): 93.3 x10_2/uL | KIDNEY_L (9 h): 0.9 g | KIDNEY_R (9 h): 0.9 g | KIDNEY_TOTAL (9 h): 1.8 g | LIVER (9 h): 8.2 g | A/G (9 h): 2.4 | ALP (9 h): 800.8 IU/L | ALT (9 h): 32.6 IU/L | AST (9 h): 63 IU/L | BUN (9 h): 12.2 mg/dL | CRE (9 h): 0.6 mg/dL | Ca (9 h): 10.4 mg/dL | Cl (9 h): 104.6 meq/L | DBIL (9 h): 0.064 mg/dL | GLC (9 h): 190.4 mg/dL | IP (9 h): 10.4 mg/dL | K (9 h): 4.9 meq/L | LDH (9 h): 82 IU/L | Na (9 h): 138.2 meq/L | PL (9 h): 126.4 mg/dL | RALB (9 h): 3.7 g/dL | TBIL (9 h): 0.3 mg/dL | TC (9 h): 74.6 mg/dL | TG (9 h): 42.8 mg/dL | TP (9 h): 5.2 g/dL | gamma-GTP (9 h): 0.8 IU/L | TERMINAL_BW (24 h): 206.2 g | APTT (24 h): 16.5 s | Bas (24 h): 0% | Eos (24 h): 0.8% | Fbg (24 h): 211.2 mg/dL | Hb (24 h): 12.6 g/dL | Ht (24 h): 38.2% | Lym (24 h): 75% | MCH (24 h): 21.6 pg | MCHC (24 h): 33.1% | MCV (24 h): 65.4 fL | Mono (24 h): 8.4% | Neu (24 h): 15.6% | PT (24 h): 11.5 s | Plat (24 h): 106.9 x10_4/uL | RBC (24 h): 584.2 x10_4/ul | Ret (24 h): 10.1% | WBC (24 h): 107.2 x10_2/uL | KIDNEY_L (24 h): 0.9 g | KIDNEY_R (24 h): 0.9 g | KIDNEY_TOTAL (24 h): 1.8 g | LIVER (24 h): 10.2 g | A/G (24 h): 2.1 | ALP (24 h): 885.6 IU/L | ALT (24 h): 38.6 IU/L | AST (24 h): 66.4 IU/L | BUN (24 h): 16.8 mg/dL | CRE (24 h): 0.6 mg/dL | Ca (24 h): 11 mg/dL | Cl (24 h): 102.6 meq/L | DBIL (24 h): 0.026 mg/dL | GLC (24 h): 202.2 mg/dL | IP (24 h): 8.4 mg/dL | K (24 h): 4.6 meq/L | LDH (24 h): 86.8 IU/L | Na (24 h): 140.6 meq/L | PL (24 h): 146.8 mg/dL | RALB (24 h): 3.6 g/dL | TBIL (24 h): 0.3 mg/dL | TC (24 h): 81 mg/dL | TG (24 h): 103 mg/dL | TP (24 h): 5.4 g/dL | gamma-GTP (24 h): 1.2 IU/L

Source: ChEMBL document CHEMBL3885861, “Open TG-GATES”
